# Measured values as given in paper doi:10.1101/487637v1, “Chemogenetic ligands for translational neurotheranostics” (biorxiv, 2018).
# Legend:
# [1] = target: T1, hM4Di (Homo sapiens, UniProt P08173, Y113C/A203G); assay: [3H]clozapine competition, HEK-293 membranes; type: binding; conditions: 2.5 nM [3H]clozapine, 50 mM Tris-HCl pH 7.4, 10 mM MgCl2, RT, 2 h
# T1 construct: gene CHRM4; human M4 muscarinic receptor DREADD; AAV plasmid Addgene #89150; transiently expressed in HEK-293 cells; docking model prints Y113G/A203G, the standard DREADD is Y113C/A203G
# T1 sequence (P08173 1-479 Y113C/A203G): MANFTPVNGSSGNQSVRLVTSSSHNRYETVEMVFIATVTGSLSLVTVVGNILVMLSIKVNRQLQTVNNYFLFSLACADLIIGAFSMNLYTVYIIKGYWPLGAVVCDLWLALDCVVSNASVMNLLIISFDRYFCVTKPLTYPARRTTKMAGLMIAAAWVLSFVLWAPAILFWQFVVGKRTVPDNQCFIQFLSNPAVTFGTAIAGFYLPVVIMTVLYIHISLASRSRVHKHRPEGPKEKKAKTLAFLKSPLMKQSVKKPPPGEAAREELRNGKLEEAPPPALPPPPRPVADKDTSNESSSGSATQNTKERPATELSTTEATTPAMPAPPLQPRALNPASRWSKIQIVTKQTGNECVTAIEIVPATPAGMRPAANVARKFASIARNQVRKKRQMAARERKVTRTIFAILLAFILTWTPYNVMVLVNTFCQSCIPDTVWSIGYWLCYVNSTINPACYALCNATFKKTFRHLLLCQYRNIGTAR
# [2] = target: T2, hM3Dq (Homo sapiens, UniProt P20309, Y149C/A239G); assay: [3H]clozapine competition, HEK-293 membranes; type: binding; conditions: 2.5 nM [3H]clozapine, 50 mM Tris-HCl pH 7.4, 10 mM MgCl2, RT, 2 h
# T2 construct: gene CHRM3; human M3 muscarinic receptor DREADD; AAV plasmid Addgene #89149; transiently expressed in HEK-293 cells
# [3] = target: T3, hM4Di (Homo sapiens, UniProt P08173, A203G/Y113C); assay: [3H]clozapine competition, HEK-293 membranes; type: binding
# T3 construct: gene CHRM4; human M4 muscarinic receptor DREADD; AAV plasmid Addgene #89150; transiently expressed in HEK-293 cells; docking model prints Y113G/A203G, the standard DREADD is Y113C/A203G
# T3 sequence (P08173 1-479 Y113C/A203G): T1 sequence (P08173 1-479 Y113C/A203G)
# [4] = target: T1, hM4Di; assay: BRET Galpha-o1 activation, HEK-293; type: cell-based; conditions: agonist; PBS; Galpha-Rluc8, beta1, gamma2-mVenus
# [5] = target: T4, hM3Dq (Homo sapiens, UniProt P20309, A239G/Y149C); assay: [3H]clozapine competition, HEK-293 membranes; type: binding
# T4 construct: gene CHRM3; human M3 muscarinic receptor DREADD; AAV plasmid Addgene #89149; transiently expressed in HEK-293 cells
# T4 sequence (P20309 whole entry Y149C/A239G): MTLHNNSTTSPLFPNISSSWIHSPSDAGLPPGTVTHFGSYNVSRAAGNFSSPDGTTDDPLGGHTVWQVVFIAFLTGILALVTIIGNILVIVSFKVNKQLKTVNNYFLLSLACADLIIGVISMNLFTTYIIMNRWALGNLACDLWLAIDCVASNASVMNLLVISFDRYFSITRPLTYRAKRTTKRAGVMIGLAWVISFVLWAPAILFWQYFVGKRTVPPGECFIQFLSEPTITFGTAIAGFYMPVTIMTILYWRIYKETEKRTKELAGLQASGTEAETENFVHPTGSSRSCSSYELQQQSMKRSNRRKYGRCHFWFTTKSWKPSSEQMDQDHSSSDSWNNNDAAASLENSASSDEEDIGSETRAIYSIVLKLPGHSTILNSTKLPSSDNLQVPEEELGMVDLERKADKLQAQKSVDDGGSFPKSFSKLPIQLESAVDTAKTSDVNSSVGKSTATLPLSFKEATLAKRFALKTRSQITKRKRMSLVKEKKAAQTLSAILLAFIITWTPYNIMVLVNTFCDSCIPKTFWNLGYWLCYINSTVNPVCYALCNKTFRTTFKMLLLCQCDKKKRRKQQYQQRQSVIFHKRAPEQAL
# T2 sequence (P20309 whole entry Y149C/A239G): as above
structure (smiles),measurement,setting,value
"CCN1CCN(C2=Nc3cc(Cl)ccc3Nc3ccccc32)CC1 [C13, Compound 13]",Ki,[1],0.0043 µM
same,Ki,[2],0.0043 µM
"c1ccc2c(c1)N=C(N1CCNCC1)c1ccccc1N2 [C21, Compound 21]",Ki,[3],0.091 µM
same,EC50,[4],C21 was less potent than clozapine at Gi/o activation in cells or tissue expressing hM4Di
same,Ki,[5],0.23 µM
"CN1CCN(C2=Nc3cc(Cl)ccc3Nc3ccccc32)CC1 [CLZ, clozapine]",EC50,[4],C21 was less potent than clozapine at Gi/o activation in cells or tissue expressing hM4Di
